Data taken from patent US12492188B2, “1H-benzo[D]imidazole derivatives as TLR9 inhibitors for the treatment of fibrosis” (BRISTOL-MYERS SQUIBB COMPANY, priority 2020, dated 2025).
Read-outs that look alike come from different tables or passages of the source.

Tests used:
Type in all cases: cell-based
human TLR7 = target: T1, human TLR7 (Homo sapiens, UniProt Q9NYK1); assay: TLR7 inhibition reporter assay (HEK-Blue cells, secreted embryonic alkaline phosphatase reporter); settings: HEK-Blue cells overexpressing human TLR7, stimulated with gardiquimod 7.5 μM; read-out: TLR 7 IC50
T1 construct: host or cells: HEK-Blue cells (HEK293-derived reporter line)
T1 sequence (Q9NYK1 27-1049): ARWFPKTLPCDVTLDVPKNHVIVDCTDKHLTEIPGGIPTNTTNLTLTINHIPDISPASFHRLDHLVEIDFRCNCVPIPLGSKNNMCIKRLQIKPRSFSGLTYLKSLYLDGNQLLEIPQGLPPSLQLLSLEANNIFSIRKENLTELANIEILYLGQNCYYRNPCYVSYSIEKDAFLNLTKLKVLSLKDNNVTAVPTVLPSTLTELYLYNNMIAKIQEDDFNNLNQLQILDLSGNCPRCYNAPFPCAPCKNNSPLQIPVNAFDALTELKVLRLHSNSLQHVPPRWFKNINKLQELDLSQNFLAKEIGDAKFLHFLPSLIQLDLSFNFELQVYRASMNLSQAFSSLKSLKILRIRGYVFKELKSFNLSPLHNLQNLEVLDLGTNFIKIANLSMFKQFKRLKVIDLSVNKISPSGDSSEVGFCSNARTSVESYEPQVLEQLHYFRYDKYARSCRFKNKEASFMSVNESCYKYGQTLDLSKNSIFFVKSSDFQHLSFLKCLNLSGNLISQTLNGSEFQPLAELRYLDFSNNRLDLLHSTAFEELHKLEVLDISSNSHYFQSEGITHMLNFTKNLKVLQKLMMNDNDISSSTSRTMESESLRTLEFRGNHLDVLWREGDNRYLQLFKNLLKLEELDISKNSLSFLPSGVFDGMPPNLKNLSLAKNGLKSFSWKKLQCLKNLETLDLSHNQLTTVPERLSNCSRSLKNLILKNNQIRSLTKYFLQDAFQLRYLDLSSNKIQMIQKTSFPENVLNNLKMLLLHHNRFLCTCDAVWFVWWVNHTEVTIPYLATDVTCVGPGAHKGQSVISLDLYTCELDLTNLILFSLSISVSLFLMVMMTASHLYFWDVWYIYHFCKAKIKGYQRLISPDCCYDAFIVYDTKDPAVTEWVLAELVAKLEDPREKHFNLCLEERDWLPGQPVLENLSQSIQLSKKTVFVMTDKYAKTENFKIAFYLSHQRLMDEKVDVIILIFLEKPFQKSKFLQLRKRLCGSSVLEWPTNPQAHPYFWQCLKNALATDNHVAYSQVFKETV
Summary of the method: (§1)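 HEK-Blue cells expressing human TLR7, TLR8 or TLR9 with an NF-κB/AP-1-driven SEAP reporter were pretreated with compound (0.05 nM–50 μM final) for 30 min at room temperature. Agonists were gardiquimod 7.5 μM for TLR7, R848 15.9 μM for TLR8 and ODN2006 5 nM for TLR9. SEAP was read after 22 h at 37 °C, and inhibition was calculated relative to agonist-plus-DMSO and known-inhibitor controls.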

human TLR8 = target: T2, human TLR8 (Homo sapiens, UniProt Q9NR97); assay: TLR8 inhibition reporter assay (HEK-Blue cells, secreted embryonic alkaline phosphatase reporter); settings: HEK-Blue cells overexpressing human TLR8, stimulated with R848 15.9 μM; read-out: TLR 8 IC50
T2 construct: host or cells: HEK-Blue cells (HEK293-derived reporter line)
T2 sequence (Q9NR97 27-1041): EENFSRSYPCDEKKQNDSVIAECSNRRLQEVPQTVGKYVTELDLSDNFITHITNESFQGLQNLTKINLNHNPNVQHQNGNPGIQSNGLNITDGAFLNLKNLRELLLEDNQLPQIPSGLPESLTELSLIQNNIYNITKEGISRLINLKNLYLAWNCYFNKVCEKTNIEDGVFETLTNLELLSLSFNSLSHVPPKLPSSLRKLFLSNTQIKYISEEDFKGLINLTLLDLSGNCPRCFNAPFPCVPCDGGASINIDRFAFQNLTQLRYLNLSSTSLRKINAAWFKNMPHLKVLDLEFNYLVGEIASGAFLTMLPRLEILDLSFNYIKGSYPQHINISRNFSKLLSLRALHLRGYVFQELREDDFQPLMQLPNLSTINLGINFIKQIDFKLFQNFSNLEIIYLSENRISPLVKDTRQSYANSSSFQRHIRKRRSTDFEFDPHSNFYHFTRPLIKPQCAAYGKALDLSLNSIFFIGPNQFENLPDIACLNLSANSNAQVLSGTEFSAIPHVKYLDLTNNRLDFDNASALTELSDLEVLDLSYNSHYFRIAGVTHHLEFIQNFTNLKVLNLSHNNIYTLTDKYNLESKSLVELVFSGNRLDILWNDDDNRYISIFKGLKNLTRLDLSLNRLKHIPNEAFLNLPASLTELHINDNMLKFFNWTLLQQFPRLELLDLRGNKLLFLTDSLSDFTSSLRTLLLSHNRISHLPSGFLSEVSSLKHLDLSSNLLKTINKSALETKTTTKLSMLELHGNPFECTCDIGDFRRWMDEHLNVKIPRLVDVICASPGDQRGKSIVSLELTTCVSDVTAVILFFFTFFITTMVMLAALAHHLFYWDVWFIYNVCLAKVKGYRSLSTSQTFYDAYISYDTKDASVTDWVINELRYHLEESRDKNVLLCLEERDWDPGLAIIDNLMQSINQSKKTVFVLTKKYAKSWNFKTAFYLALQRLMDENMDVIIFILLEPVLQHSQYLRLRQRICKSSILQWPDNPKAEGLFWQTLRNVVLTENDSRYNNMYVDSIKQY
Summary of the method: as §1

human TLR9 = target: T3, human TLR9 (Homo sapiens, UniProt Q9NR96); assay: TLR9 inhibition reporter assay (HEK-Blue cells, secreted embryonic alkaline phosphatase reporter); settings: HEK-Blue cells overexpressing human TLR9, stimulated with ODN2006 5 nM
T3 construct: host or cells: HEK-Blue cells (HEK293-derived reporter line)
T3 sequence (Q9NR96 26-1032): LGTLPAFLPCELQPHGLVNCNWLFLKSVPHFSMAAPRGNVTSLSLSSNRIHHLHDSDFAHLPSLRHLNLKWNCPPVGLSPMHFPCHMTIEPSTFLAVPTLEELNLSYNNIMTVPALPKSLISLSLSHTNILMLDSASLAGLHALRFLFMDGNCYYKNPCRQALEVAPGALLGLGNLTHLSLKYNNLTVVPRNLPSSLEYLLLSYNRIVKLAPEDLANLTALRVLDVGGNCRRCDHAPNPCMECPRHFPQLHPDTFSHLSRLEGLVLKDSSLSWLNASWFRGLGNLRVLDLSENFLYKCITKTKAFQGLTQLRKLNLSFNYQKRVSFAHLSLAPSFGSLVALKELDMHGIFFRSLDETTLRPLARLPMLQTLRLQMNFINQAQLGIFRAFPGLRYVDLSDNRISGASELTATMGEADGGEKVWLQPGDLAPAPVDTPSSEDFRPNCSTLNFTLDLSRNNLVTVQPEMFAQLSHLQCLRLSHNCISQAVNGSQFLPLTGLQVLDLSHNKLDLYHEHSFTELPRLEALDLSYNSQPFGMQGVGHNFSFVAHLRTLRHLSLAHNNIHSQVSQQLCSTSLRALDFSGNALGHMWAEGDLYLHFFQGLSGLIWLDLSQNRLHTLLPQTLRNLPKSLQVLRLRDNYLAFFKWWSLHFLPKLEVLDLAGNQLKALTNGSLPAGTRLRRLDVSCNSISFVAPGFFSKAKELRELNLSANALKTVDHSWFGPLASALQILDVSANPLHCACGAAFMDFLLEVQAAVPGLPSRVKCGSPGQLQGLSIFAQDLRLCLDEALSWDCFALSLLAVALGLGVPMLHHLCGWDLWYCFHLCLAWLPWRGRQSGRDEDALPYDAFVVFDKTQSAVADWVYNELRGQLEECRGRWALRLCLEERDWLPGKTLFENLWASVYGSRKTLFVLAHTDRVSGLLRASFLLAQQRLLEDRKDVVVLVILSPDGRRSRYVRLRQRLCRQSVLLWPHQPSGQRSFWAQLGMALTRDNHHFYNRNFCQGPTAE
Summary of the method: as §1

[1] = 22 hour incubation, reporter readout

IC50 (human TLR7) [µM] | IC50 (human TLR8) [µM] | IC50 (human TLR9; [1]) [µM] | IC50 (human TLR9; read-out: TLR 9 IC50) [µM] | SMILES
1.4 | 5.1 | 0.054 | – | Cc1cc(-c2ccc(CN3CCC(N4CCCC4)CC3)cc2)cc2c1nc(-c1ccc(S(C)(=O)=O)cc1)n2C1CC1 [Example 372, 1-cyclopropyl-4-methyl-2-(4-(methylsulfonyl)phenyl)-6-(4-((4-(pyrrolidin-1-yl)piperidin-1-yl)methyl)phenyl)-1H-benzo[d]imidazole]
0.8 | > 50 | 0.28 | 0.279 | CN(C)C1CCN(Cc2ccc(-c3ccc4nc(-c5ccccc5)n(C)c4c3)cc2)CC1 [Example 374, N,N-dimethyl-1-(4-(1-methyl-2-phenyl-1H-benzo[d]imidazol-6-yl)benzyl)piperidin-4-amine]
1.3 | 0.4 | 0.2 | 0.203 | CN(C)C1CCN(Cc2ccc(-c3ccc4nc(-c5ccc(S(C)(=O)=O)cc5)n(C)c4c3)cc2)CC1 [Example 375, N,N-dimethyl-1-(4-(1-methyl-2-(4-(methylsulfonyl)phenyl)-1H-benzo[d]imidazol-6-yl)benzyl)piperidin-4-amine]
0.8 | 1.4 | 0.21 | 0.206 | COc1ccc(-c2nc3ccc(-c4ccc(CN5CCC(N(C)C)CC5)cc4)cc3n2C)cc1 [Example 376, 1-(4-(2-(4-methoxyphenyl)-1-methyl-1H-benzo[d]imidazol-6-yl)benzyl)-N,N-dimethylpiperidin-4-amine]
1.3 | 19.6 | 0.35 | 0.346 | CN(C)C1CCN(Cc2ccc(-c3ccc4nc(-c5cccc(F)c5)n(C)c4c3)cc2)CC1 [Example 377, 1-(4-(2-(3-fluorophenyl)-1-methyl-1H-benzo[d]imidazol-6-yl)benzyl)-N,N-dimethylpiperidin-4-amine]
2.2 | 17.1 | 0.35 | 0.349 | CN(C)C1CCN(Cc2ccc(-c3ccc4nc(-c5ccc(F)cc5)n(C)c4c3)cc2)CC1 [Example 378, 1-(4-(2-(4-fluorophenyl)-1-methyl-1H-benzo[d]imidazol-6-yl)benzyl)-N,N-dimethylpiperidin-4-amine]
1 | 18.8 | 0.098 | 0.098 | CN(C)C1CCN(Cc2ccc(-c3ccc4nc(-c5ccccc5S(C)(=O)=O)n(C)c4c3)cc2)CC1 [Example 379, N,N-dimethyl-1-(4-(1-methyl-2-(2-(methylsulfonyl)phenyl)-1H-benzo[d]imidazol-6-yl)benzyl)piperidin-4-amine]
1.3 | 0.3 | 0.174 | 0.174 | CN(C)C1CCN(Cc2ccc(-c3ccc4nc(-c5ccc(S(C)(=O)=O)cc5F)n(C)c4c3)cc2)CC1 [Example 380, 1-(4-(2-(2-fluoro-4-(methylsulfonyl)phenyl)-1-methyl-1H-benzo[d]imidazol-6-yl)benzyl)-N,N-dimethylpiperidin-4-amine]
2.2 | 2.3 | 0.068 | 0.068 | CN(C)C1CCN(Cc2ccc(-c3ccc4nc(-c5ccc(C#N)cc5)n(C)c4c3)cc2)CC1 [Example 383, 4-(6-(4-((4-(dimethylamino)piperidin-1-yl)methyl)phenyl)-1-methyl-1H-benzo[d]imidazol-2-yl)benzonitrile]
1.2 | 5.6 | 0.18 | 0.179 | Cc1cc(-c2ccc(CN3CCC(N(C)C)CC3)cc2)cc2c1nc(-c1ccc(S(C)(=O)=O)cc1)n2C [Example 385, 1-(4-(1,4-dimethyl-2-(4-(methylsulfonyl)phenyl)-1H-benzo[d]imidazol-6-yl)benzyl)-N,N-dimethylpiperidin-4-amine]
1.7 | 4.4 | 0.27 | 0.267 | CCN(C)C1CCN(c2ccc(-c3cc(C)c4nc(-c5ccc(S(C)(=O)=O)cc5)n(C)c4c3)cc2)CC1 [Example 386, 1-(4-(1,4-dimethyl-2-(4-(methylsulfonyl)phenyl)-1H-benzo[d]imidazol-6-yl)phenyl)-N-ethyl-N-methylpiperidin-4-amine]
0.4 | 3.2 | 0.23 | 0.227 | Cc1cc(-c2ccc(CN3C[C@H]4CN(C)C[C@H]4C3)c(F)c2)cc2c1nc(-c1ccc(S(C)(=O)=O)cc1)n2C [Example 388, 6-(3-fluoro-4-((cis-5-methylhexahydropyrrolo[3,4-c]pyrrol-2(1H)-yl)methyl)phenyl)-1,4-dimethyl-2-(4-(methylsulfonyl)phenyl)-1H-benzo[d]imidazole]
